Data: patent US20250108023A1, “Products for Masking Bitterness” (The Third People's Hospital of Henan Province, priority 2023, published 2025)
Where two headings read alike, the source gives them in different places.

How the values were obtained:
[1] = Oral spray bitterness masking taste test by volunteers with Coptis chinensis standard bitter solution; format: in vivo, healthy volunteers; parameters: key to bitterness value after drug: bitterness value 0.5–5.5; 1 = none, 5 = unbearable; key to Reduction of bitterness: drop in bitterness value (0.5–5.5 scale) from initial; details: for Duration >: retention time until bitterness rises; for inhibition in vivo at 0.2 %: Homo sapiens, read-out: Reduction range; for bitterness value after drug: initial bitterness 4.0, 16 cases
Method: Purpose of the experiment: it is to screen out compounds that take effect within 5 seconds, last for 30-120 seconds, and it is expected, by using such kind of compounds, the taste of the drug cannot be felt during the duration (30-120 seconds) when taking the drug.
Principle of the experiment: simulate the process of taking medicine and using the taste masking agents, first spray about 0.5 ml of oral spray on the throat (3 times), and after it takes effect quickly, taste 10 ml of bitter standard solution to screen drugs that can be used in advance and can mask the bitter taste.
• 1: Volunteer screening. The research team strictly screened the recruited volunteers and finally selected healthy volunteers as subjects. They signed informed consent forms before the experiment; • 2: Standard bitterness sample preparation. The bitterness of the samples was divided into five levels, and each level was assigned a certain bitterness value range; • 3: The sensory standard was corrected by the oral taste evaluation method, that is, the sensory standard was corrected by comparing the taste evaluation of the volunteers with the established bitterness value of the reference sample group. Specific steps: when the volunteers are doing the oral tasting test, the reference solutions of various concentrations are placed in the tasting cups, and the volunteers hold one of the solutions in their mouths, time it, and rinse their mouths by using the solution so that the bitter taste perception area at the root and sides of the tongue can fully feel the bitter taste of the drug. […] Then dilute all the selected taste masking drugs, prepare the solution, take 10 ml and put it into the spray bottle, spray it into the mouth 3 times, stay for 5 seconds, drink 10 ml of standard bitterness solution, feel and record the bitterness value, keep the standard bitterness solution in the mouth until the bitterness rises, and record the retention time. • 5: Quality control. […] Since the experimental objects are biological samples and there are individual differences between different subjects, there may be individual outliers in the experimental test data. The Grubbs test method was used to exclude outliers in the data, and then the experimental data were plotted in tables and curves for data analysis.
It is necessary to process the experimental data. Specifically, the Grubbs test method was used to perform a circular test and elimination of outliers on the data, and a bilateral test was used to eliminate outliers in the oral test. Considering the characteristics of biological samples, the detection level was selected as 0.1 and the elimination level was selected as 0.05 in this experiment.
The experimental medicinal material processing method mentioned in the above technical scheme is as follows: Preparation of bitter standard solution, use 10 g of Coptis chinensis powder, add 100 ml of pure water above 90 degrees, stir, let stand for 20 minutes, take the supernatant for use, determine the standard bitterness of 4.0 degrees by oral tasting, dilute 5 times, determine the standard bitterness of 2.0 degrees, dilute 2.0 degrees again 5 times, determine the standard bitterness of 0.5 degrees. Compare with the bitterness scoring table, (level 1 means “no bitterness or almost no bitterness”, the bitterness value is 0.5˜1.5; level 2 means “slightly bitter”, the bitterness value is 1.5˜2.5; level 3 means “bitter but acceptable”, the bitterness value is 2.5˜3.5; level 4 means “very bitter, but still tolerable”, the bitterness value is 3.5˜4.5; level 5 means “unbearable bitterness”, the bitterness value is 4.5˜5.5). Adjust the judgment and cognition of bitterness.
The standard bitterness solution used in this experiment to verify the experimental effect is a 4.0 degree bitterness solution of Coptis chinensis prepared according to the above method.

[2] = Broad-spectrum taste masking test on decoctions of extremely bitter Chinese herbal medicine slices; format: in vivo, healthy volunteers; parameters: key: reduction in bitterness degrees on a 5-degree graduation scale; details: 0.1% taste masking agent in 40% ethanol
Method: According to the standard of decocting 100 ml of liquid from 10 g of dry Chinese herbal medicine slices (decoction method: use a stainless steel container, and keep for 20 minutes after boiling), from 300 commonly used Chinese herbal medicine slices, combined with the Chinese Pharmacopoeia, more than 20 Chinese herbal medicines with bitter or extremely bitter properties written in the pharmacopoeia were selected, including Bletilla striata, Cortex qin, Stephania tetrandra, Apricot kernel, Belamcanda chinensis, Angelica dahurica, Lotus seed heart, Toosendan fruit, Andrographis paniculata, Sophora flavescens, Coptis chinensis, Gentiana scabra, Forsythia suspensa, Sophora japonica, Phellodendron amurense, Scutellaria baicalensis, Platycodon grandiflorum, Notopterygium wilfordii, Saposhnikovia divaricata, Perilla frutescens, Zanthoxylum bungeana, Osmanthus fragrans, Sophora flavescens, and Chrysanthemum officinale, totally 24 kinds of Chinese herbal medicines.
Finally, through the 5-degree graduation method, 2 species with a bitterness higher than 3.5 (moderate bitterness) and 7 species with a bitterness higher than 5 degrees (highly bitter, extremely bitter, accompanied by nausea) were screened out, a total of 9 species (Angelica pubescens, Lotus Seed Heart, Toosendan, Andrographis paniculata, Sophora flavescens, Coptis chinensis, Gentiana scabra, Forsythia suspensa, Sophora japonica) are selected as bitterness representatives to participate in the bitterness masking experiment. (Note: The bitterness of Coptis chinensis slices can reach 5.2 after 20 minutes of water decoction. The reference standard solution is 90-degree water brewing Coptis chinensis powder, it is automatically cooled to obtain a solution with a bitter taste of 4.0. Because Coptis chinensis has been used as a standard bitter liquid, it is no longer used).
The experimental method is the same as the previous part.

[3] = 0.2% solution in 60% ethanol as oral spray
[4] = 0.2% solution in 60% ethanol as oral spray, relative to original bitterness 4.0
[5] = concentration 0.001% in 60% ethanol
[6] = concentration 0.005% in 60% ethanol
[7] = concentration 0.02% in 60% ethanol
[8] = concentration 0.10% in 60% ethanol
[9] = concentration 0.50% in 60% ethanol
[10] = Andrographis paniculata, original bitterness 5
[11] = Forsythia suspensa, original bitterness 3
[12] = Gentiana, original bitterness 5
[13] = Lotus seed heart, original bitterness 5
[14] = Sophora flavescens, original bitterness 5
[15] = Toulianzi, original bitterness 5

Structure (SMILES) | Duration > [1, 3] | inhibition in vivo at 0.2 % [1, 4] | bitterness value after drug [1, 5] | bitterness value after drug [1, 6] | bitterness value after drug [1, 7] | bitterness value after drug [1, 8] | bitterness value after drug [1, 9] | Bitterness reduction value [2, 10] | Bitterness reduction value [2, 11] | Bitterness reduction value [2, 12] | Bitterness reduction value [2, 13] | Bitterness reduction value ([2]; Puhuo, original bitterness 5) | Bitterness reduction value [2, 14] | Bitterness reduction value [2, 15] | Reduction of bitterness ([1]; 0.2% solution in 60% ethanol as oral spray, original bitterness average 4.0, average of 31 cases) | Reduction range [1, 4] | inhibition in vivo at 0.2 % ([1]; po)
O=CC=Cc1ccccc1 [Cinnamaldehyde, 3-phenyl-2-propenal] | > 50 s | 72.5% | 3.5 | 2.6 | 1.5 | 1.1 | 1.2 | 4 | 1.7 | 4.2 | 2.3 | 4.2 | 2.3 | 3.5 |  |  | 
CC(C)=CCCC(C)=CC=O [Citral, citral] | > 30 s | 57.5% | 3.7 | 2.8 | 2.1 | 1.7 | 1.9 | 1.5 | 2.5 | 3.7 | 3.5 | 3.75 | 1.7 | 1.5 |  |  | 
C=CCc1ccc(OC(C)=O)c(OC)c1 [Eugenol acetate] | > 60 s | 60% | 3.8 | 3.2 | 2.3 | 1.6 | 1.4 |  |  |  |  |  |  |  |  |  | 
CCCCC[C@H](O)CC(=O)CCc1ccc(O)c(OC)c1 [Gingerol, 6-gingerol] | > 20 s | 55% | 4 | 2.4 | 2.1 | 1.8 | 1.8 |  |  |  |  |  |  |  |  |  | 
C=CC(C)(O)CCC=C(C)C (centres unmarked) [Linalool, linalool] | > 30 s | 52.5% | 3.5 | 2.5 | 2.1 | 1.9 | 1.9 | 0.8 | 2 | 1.2 | 1.6 | 2.5 | 0.5 | 1.1 |  |  | 
CC1CCC(C(C)C)C(=O)C1 (centres unmarked) [Menthone, 5-methyl-2-isopropylcyclohexanone] | > 30 s | 70% | 2.5 | 2.1 | 1.4 | 1.2 | 1.1 |  |  |  |  |  |  |  |  |  | 
CC(C)[C@@H]1CC[C@@H](C)C[C@H]1OC(=O)CCC(=O)O [Menthyl succinate] | > 10 s |  | 3.2 | 2.8 | 2.6 | 2.4 | 2.1 |  |  |  |  |  |  |  | 1.6 | 40.00% | 
COc1cc(C(=O)O)ccc1O [Vanillic acid, 3-methoxy-4-hydroxybenzoic acid] | > 50 s | 27.5% |  |  |  |  |  |  |  |  |  |  |  |  |  |  | 
COc1ccc(CCN(C)CCCC(C#N)(c2ccc(OC)c(OC)c2)C(C)C)cc1OC (centres unmarked) [Verapamil, 5-((3,4-dimethoxyphenylethyl)methylamino)-2-(3,4-dimethoxyphenyl)-2-isopropylvaleronitrile, reference compound] |  |  |  |  |  |  |  |  |  |  |  |  |  |  |  |  | 0%
